Measurements as given in patent US20250195342A1, “DRY COMPOSITIONS AND METHODS FOR FORMING STABLE LIQUID CLEANSING FORMULATIONS” (Conopco, Inc., d/b/a UNILEVER, priority 2022, published 2025).

Text: Silver ion solubility, as referred to herein, is a value derived from a solubility product (Ksp) in water at 25 degrees centigrade, a well known parameter that is reported in numerous sources.

Row | Structure (SMILES) | Silver Ion Solubility [Ag+]
1 | [Cl][Ag] [Silver chloride] | 1.3 × 10″^5 mol/L
2 | [Br][Ag] [Silver bromide] | Silver bromide 1 5.3 × 10−^13 7.3 × 10″^7 mol/L
